26 compounds from US9873709B2 (priority 2013, dated 2018) can be followed below.

In the assay the test system is JAK1-dependent STAT6 phosphorylation downstream of IL-13 stimulation in TF-1 human erythroleukemia cells. Kind of assay: cells. Conditions: TF-1, read-out: IL-13-pSTAT6 IC50.
For orientation: IC50 means the point on the concentration scale where inhibition reaches its midpoint. As to `O=C(CCC(F)(F)F)N1CC=C(c2cccn3nc(Nc4ccc(C(=O)N5CCN(Cc6cccnc6)CC5)cc4)nc23)CC1` [Example 2-394, 4,4,4-trifluoro-1-[4-[2-[4-[4-(3-pyridylmethyl)piperazine-1-carbonyl]anilino]-[1,2,4]triazolo[1,5-a]pyridin-8-yl]-3,6-dihydro-2H-pyridin-1-yl]butan-1-one], the IC50 came to 4 nM.

Turning to `O=C(CCC(F)(F)F)N1CC=C(c2cccn3nc(Nc4ccc(C(=O)N5CCN(c6cccnc6)CC5)cc4)nc23)CC1` [Example 2-395, 4,4,4-trifluoro-1-[4-[2-[4-[4-(3-pyridyl)piperazine-1-carbonyl]anilino]-[1,2,4]triazolo[1,5-a]pyridin-8-yl]-3,6-dihydro-2H-pyridin-1-yl]butan-1-one], the IC50 amounted to 4.6 nM.

`O=C(CCC(F)(F)F)N1CC=C(c2cccn3nc(Nc4ccc(C(=O)N5CCCC5Cc5ccccn5)cc4)nc23)CC1` (centres unmarked) [Example 2-396, 4,4,4-trifluoro-1-[4-[2-[4-[2-(2-pyridylmethyl)pyrrolidine-1-carbonyl]anilino]-[1,2,4]triazolo[1,5-a]pyridin-8-yl]-3,6-dihydro-2H-pyridin-1-yl]butan-1-one]: the IC50 worked out at 5.4 nM.

In the case of `O=C(CCC(F)(F)F)N1CC=C(c2cccn3nc(Nc4ccc(C(=O)N5CCN(c6ccccn6)CC5)cc4)nc23)CC1` [Example 2-397, 4,4,4-trifluoro-1-[4-[2-[4-[4-(2-pyridyl)piperazine-1-carbonyl]anilino]-[1,2,4]triazolo[1,5-a]pyridin-8-yl]-3,6-dihydro-2H-pyridin-1-yl]butan-1-one], the IC50 was found to be 20.2 nM.

Turning to `O=C(CCC(F)(F)F)N1CC=C(c2cccn3nc(Nc4ccc(C(=O)N5CCN(CC6CC6)CC5)cc4)nc23)CC1` [Example 2-398, 1-[4-[2-[4-[4-(cyclopropylmethyl)piperazine-1-carbonyl]anilino]-[1,2,4]triazolo[1,5-a]pyridin-8-yl]-3,6-dihydro-2H-pyridin-1-yl]-4,4,4-trifluoro-butan-1-one], the IC50 was determined as 8.6 nM.

In the case of `CC(CN(C)C)NC(=O)c1ccc(Nc2nc3c(C4=CCN(C(=O)CCC(F)(F)F)CC4)cccn3n2)cc1` (centres unmarked) [Example 2-399, N-[2-(dimethylamino)-1-methyl-ethyl]-4-[[8-[1-(4,4,4-trifluorobutanoyl)-3,6-dihydro-2H-pyridin-4-yl]-[1,2,4]triazolo[1,5-a]pyridin-2-yl]amino]benzamide], the IC50 is 12.1 nM.

`CCCN1CCC(N(C(=O)c2ccc(Nc3nc4c(C5=CCN(C(=O)CCC(F)(F)F)CC5)cccn4n3)cc2)C2CC2)CC1` [Example 2-400, N-cyclopropyl-N-(1-propyl-4-piperidyl)-4-[[8-[1-(4,4,4-trifluorobutanoyl)-3,6-dihydro-2H-pyridin-4-yl]-[1,2,4]triazolo[1,5-a]pyridin-2-yl]amino]benzamide]: the IC50 turned out to be 6.8 nM.

Regarding `Cc1cccc(C(C)NC(=O)c2ccc(Nc3nc4c(C5=CCN(C(=O)CCC(F)(F)F)CC5)cccn4n3)cc2)n1` (centres unmarked) [Example 2-401, N-[1-(6-methyl-2-pyridyl)ethyl]-4-[[8-[1-(4,4,4-trifluorobutanoyl)-3,6-dihydro-2H-pyridin-4-yl]-[1,2,4]triazolo[1,5-a]pyridin-2-yl]amino]benzamide], the IC50 was 6 nM.

Take `CN(Cc1cccnc1)C(=O)c1ccc(Nc2nc3c(C4=CCN(C(=O)CCC(F)(F)F)CC4)cccn3n2)cc1` [Example 2-402, N-methyl-N-(3-pyridylmethyl)-4-[[8-[1-(4,4,4-trifluorobutanoyl)-3,6-dihydro-2H-pyridin-4-yl]-[1,2,4]triazolo[1,5-a]pyridin-2-yl]amino]benzamide]: the half-inhibitory concentration (IC50) worked out at 5.6 nM.

`O=C(CCC(F)(F)F)N1CC=C(c2cccn3nc(Nc4ccc(C(=O)N5CCCC(N6CCCCCC6)C5)cc4)nc23)CC1` (centres unmarked) [Example 2-403, 1-[4-[2-[4-[3-(azepan-1-yl)piperidine-1-carbonyl]anilino]-[1,2,4]triazolo[1,5-a]pyridin-8-yl]-3,6-dihydro-2H-pyridin-1-yl]-4,4,4-trifluoro-butan-1-one]: the IC50 came to 7.4 nM.

Regarding `O=C(CCC(F)(F)F)N1CC=C(c2cccn3nc(Nc4ccc(C(=O)N5CCC(Cc6ccccn6)CC5)cc4)nc23)CC1` [Example 2-404, 4,4,4-trifluoro-1-[4-[2-[4-[4-(2-pyridylmethyl)piperidine-1-carbonyl]anilino]-[1,2,4]triazolo[1,5-a]pyridin-8-yl]-3,6-dihydro-2H-pyridin-1-yl]butan-1-one], the IC50 turned out to be 13.2 nM.

Take `O=C(CCC(F)(F)F)N1CC=C(c2cccn3nc(Nc4ccc(C(=O)N5CCC(Cc6cccnc6)C5)cc4)nc23)CC1` (centres unmarked) [Example 2-405, 4,4,4-trifluoro-1-[4-[2-[4-[3-(3-pyridylmethyl)pyrrolidine-1-carbonyl]anilino]-[1,2,4]triazolo[1,5-a]pyridin-8-yl]-3,6-dihydro-2H-pyridin-1-yl]butan-one]: the IC50 stood at 7.5 nM.

For the compound `CN(Cc1ccc(N(C)C)cc1)C(=O)c1ccc(Nc2nc3c(C4=CCN(C(=O)CCC(F)(F)F)CC4)cccn3n2)cc1` [Example 2-406, N-[[4-(dimethylamino)phenyl]-methyl]-N-methyl-4-[[8-[1-(4,4,4-trifluorobutanoyl)-3,6-dihydro-2H-pyridin-4-yl]-[1,2,4]triazolo[1,5-a]pyridin-2-yl]amino]benzamide], the half-inhibitory concentration (IC50) turned out to be 40.4 nM.

Take `CN(Cc1ccncc1)C(=O)c1ccc(Nc2nc3c(C4=CCN(C(=O)CCC(F)(F)F)CC4)cccn3n2)cc1` [Example 2-407, N-methyl-N-(4-pyridylmethyl)-4-[[8-[1-(4,4,4-trifluorobutanoyl)-3,6-dihydro-2H-pyridin-4-yl]-[1,2,4]triazolo[1,5-a]pyridin-2-yl]amino]benzamide]: the IC50 stood at 4.7 nM.

In the case of `CN1CCC(N(C)C(=O)c2ccc(Nc3nc4c(C5=CCN(C(=O)c6ccccc6)CC5)cccn4n3)cc2)CC1` [Example 2-408, 4-[[8-(1-benzoyl-3,6-dihydro-2H-pyridin-4-yl)-[1,2,4]triazolo[1,5-a]pyridin-2-yl]amino]-N-methyl-N-(1-methyl-4-piperidyl)benzamide], the IC50 was 188 nM.

Turning to `CN1CCC(N(C)C(=O)c2ccc(Nc3nc4c(C5=CCN(C(=O)C6CC6)CC5)cccn4n3)cc2)CC1` [Example 2-409, 4-[[8-[1-(cyclopropanecarbonyl)-3,6-dihydro-2H-pyridin-4-yl]-[1,2,4]triazolo[1,5-a]pyridin-2-yl]amino]-N-methyl-N-(1-methyl-4-piperidyl)benzamide], the IC50 was 124 nM.

On to `CC(C)C(=O)N1CC=C(c2cccn3nc(Nc4ccc(C(=O)N(C)C5CCN(C)CC5)cc4)nc23)CC1` [Example 2-410, N-methyl-N-(1-methyl-4-piperidyl)-4-[[8-[1-(2-methylpropanoyl)-3,6-dihydro-2H-pyridin-4-yl]-[1,2,4]triazolo[1,5-a]pyridin-2-yl]amino]benzamide], for which the IC50 is 130 nM.

On to `COCCC(=O)N1CC=C(c2cccn3nc(Nc4ccc(C(=O)N(C)C5CCN(C)CC5)cc4)nc23)CC1` [Example 2-411, 4-[[8-[1-(3-methoxypropanoyl)-3,6-dihydro-2H-pyridin-4-yl]-[1,2,4]triazolo[1,5-a]pyridin-2-yl]amino]-N-methyl-N-(1-methyl-4-piperidyl)benzamide], for which the IC50 is 348 nM.

`CC(C)CCC(=O)N1CC=C(c2cccn3nc(Nc4ccc(C(=O)N(C)C5CCN(C)CC5)cc4)nc23)CC1` [Example 2-412, N-methyl-4-[[8-[1-(4-methylpentanoyl)-3,6-dihydro-2H-pyridin-4-yl]-[1,2,4]triazolo[1,5-a]pyridin-2-yl]amino]-N-(1-methyl-4-piperidyl)benzamide]: the IC50 was found to be 26.5 nM.

On to `CN1CCC(N(C)C(=O)c2ccc(Nc3nc4c(C5=CCN(C(=O)N6CCOCC6)CC5)cccn4n3)cc2)CC1` [Example 2-413, N-methyl-N-(1-methyl-4-piperidyl)-4-[[8-[1-(morpholine-4-carbonyl)-3,6-dihydro-2H-pyridin-4-yl]-[1,2,4]triazolo[1,5-a]pyridin-2-yl]amino]benzamide], for which the IC50 is 1260 nM.

With `CCOC(=O)N1CC=C(c2cccn3nc(Nc4ccc(C(=O)NCC5CCCCN5C)cc4)nc23)CC1` (centres unmarked) [Example 2-415, ethyl 4-[2-[4-[(1-methyl-2-piperidyl)methylcarbamoyl]anilino]-[1,2,4]triazolo[1,5-a]pyridin-8-yl]-3,6-dihydro-2H-pyridine-1-carboxylate], the IC50 is 13 nM.

Regarding `CCOC(=O)N1CC=C(c2cccn3nc(Nc4ccc(C(=O)NCCC5CCCNC5)cc4)nc23)CC1` (centres unmarked) [Example 2-416, ethyl 4-[2-[4-[2-(3-piperidyl)ethylcarbamoyl]anilino]-[1,2,4]triazolo[1,5-a]pyridin-8-yl]-3,6-dihydro-2H-pyridine-1-carboxylate], the IC50 turned out to be 598 nM.

With `CCOC(=O)N1CC=C(c2cccn3nc(Nc4ccc(C(=O)N5CC(C(=O)N6CCN(C)CC6)C5)cc4)nc23)CC1` [Example 2-421, ethyl 4-[2-[4-[3-(4-methylpiperazine-1-carbonyl)azetidine-1-carbonyl]anilino]-[1,2,4]triazolo[1,5-a]pyridin-8-yl]-3,6-dihydro-2H-pyridine-1-carboxylate], the IC50 worked out at 24.1 nM.

For `CCOC(=O)N1CC=C(c2cccn3nc(Nc4ccc(C(=O)NCCc5cccnc5)cc4)nc23)CC1` [Example 2-422, ethyl 4-[2-[4-[2-(3-pyridyl)ethylcarbamoyl]anilino]-[1,2,4]triazolo[1,5-a]pyridin-8-yl]-3,6-dihydro-2H-pyridine-1-carboxylate], the IC50 came out at 14 nM.

For the compound `CCOC(=O)N1CC=C(c2cccn3nc(Nc4ccc(C(=O)NCCc5ccccn5)cc4)nc23)CC1` [Example 2-423, ethyl 4-[2-[4-[2-(2-pyridyl)ethylcarbamoyl]anilino]-[1,2,4]triazolo[1,5-a]pyridin-8-yl]-3,6-dihydro-2H-pyridine-1-carboxylate], the half-inhibitory concentration (IC50) was found to be 17.3 nM.

With `CCOC(=O)N1CC=C(c2cccn3nc(Nc4ccc(C(=O)NCC5CCNCC5)cc4)nc23)CC1` [Example 2-425, ethyl 4-[2-[4-(4-piperidylmethylcarbamoyl)anilino]-[1,2,4]triazolo[1,5-a]pyridin-8-yl]-3,6-dihydro-2H-pyridine-1-carboxylate], the IC50 is 226 nM.
